Data from patent publication US12441726B2, “Compounds and uses thereof” (Foghorn Therapeutics Inc., priority 2020, dated 2025).

Experiments:
BRG-1 = BRG-1 (Homo sapiens, UniProt P51532); test: ATPase catalytic activity assay (ADP-Glo), BRG-1; details: for Emax: 1 h, read-out: BRG1 Max % Inhibition, ADP-Glo, 30 nM BRG-1, 400 μM ATP
BRM = BRM (Homo sapiens, UniProt P51531); test: ATPase catalytic activity assay (ADP-Glo), BRM; details: 30 nM BRM, 400 μM ATP; for IC50: BRM ATPase: IC50 (uM)
Chain of BRM (P51531 whole entry): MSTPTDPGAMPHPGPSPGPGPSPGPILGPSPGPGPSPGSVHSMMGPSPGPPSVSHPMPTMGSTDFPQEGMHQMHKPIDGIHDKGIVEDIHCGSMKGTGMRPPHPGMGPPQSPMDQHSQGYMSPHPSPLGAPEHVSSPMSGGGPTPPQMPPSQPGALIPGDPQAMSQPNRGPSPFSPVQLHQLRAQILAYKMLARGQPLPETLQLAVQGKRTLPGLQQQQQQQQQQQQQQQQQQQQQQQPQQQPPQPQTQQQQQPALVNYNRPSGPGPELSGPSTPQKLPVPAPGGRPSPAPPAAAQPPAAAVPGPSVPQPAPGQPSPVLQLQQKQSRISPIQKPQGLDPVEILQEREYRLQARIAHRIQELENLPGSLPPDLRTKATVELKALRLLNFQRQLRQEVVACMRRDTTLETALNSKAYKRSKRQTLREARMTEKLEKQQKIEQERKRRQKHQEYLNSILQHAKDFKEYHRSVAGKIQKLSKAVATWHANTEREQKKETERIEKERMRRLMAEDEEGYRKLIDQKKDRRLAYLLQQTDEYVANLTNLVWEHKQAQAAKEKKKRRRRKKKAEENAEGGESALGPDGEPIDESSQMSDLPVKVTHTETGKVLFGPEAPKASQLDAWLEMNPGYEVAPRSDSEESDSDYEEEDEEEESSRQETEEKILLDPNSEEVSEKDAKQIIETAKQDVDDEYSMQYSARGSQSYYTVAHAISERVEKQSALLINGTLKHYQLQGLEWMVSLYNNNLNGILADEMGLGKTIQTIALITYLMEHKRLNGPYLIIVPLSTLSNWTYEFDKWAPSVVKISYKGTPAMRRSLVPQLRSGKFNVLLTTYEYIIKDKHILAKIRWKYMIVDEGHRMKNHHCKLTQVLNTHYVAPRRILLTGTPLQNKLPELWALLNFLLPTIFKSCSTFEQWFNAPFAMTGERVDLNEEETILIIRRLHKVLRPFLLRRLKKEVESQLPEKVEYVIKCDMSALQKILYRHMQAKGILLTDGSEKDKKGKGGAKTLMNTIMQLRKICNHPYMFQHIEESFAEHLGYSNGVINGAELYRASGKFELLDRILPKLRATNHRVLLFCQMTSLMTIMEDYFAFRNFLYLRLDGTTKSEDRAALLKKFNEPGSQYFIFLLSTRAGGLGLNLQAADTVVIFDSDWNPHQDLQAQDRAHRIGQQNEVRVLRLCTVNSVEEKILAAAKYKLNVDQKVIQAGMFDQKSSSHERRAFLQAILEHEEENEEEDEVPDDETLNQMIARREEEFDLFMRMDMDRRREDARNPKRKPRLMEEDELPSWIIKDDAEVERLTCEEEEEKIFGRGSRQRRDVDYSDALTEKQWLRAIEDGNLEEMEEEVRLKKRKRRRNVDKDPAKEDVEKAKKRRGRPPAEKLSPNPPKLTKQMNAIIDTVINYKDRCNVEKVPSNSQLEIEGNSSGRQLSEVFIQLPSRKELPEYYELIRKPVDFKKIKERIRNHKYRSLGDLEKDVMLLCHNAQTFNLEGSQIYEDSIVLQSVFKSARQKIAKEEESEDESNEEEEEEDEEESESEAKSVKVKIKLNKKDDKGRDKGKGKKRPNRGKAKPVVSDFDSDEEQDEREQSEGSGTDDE
Description: The ATPase catalytic activity of BRM or BRG-1 was measured by an in vitro biochemical assay using ADP-Glo™ (Promega, V9102). The ADP-Glo™ kinase assay is performed in two steps once the reaction is complete. The first step is to deplete any unconsumed ATP in the reaction. The second step is to convert the reaction product ADP to ATP, which will be utilized by the luciferase to generate luminesce and be detected by a luminescence reader, such as Envision.
Then following addition of 5 μL of ADP-Glo™ Reagent provided in the kit, the reaction incubates at room temperature for 40 minutes. Then 10 μL of Kinase Detection Reagent provided in the kit is added to convert ADP to ATP, and the reaction incubates at room temperature for 60 minutes. Finally, luminescence measurement is collected with a plate-reading luminometer, such as Envision.

Chain of BRG-1 (P51532 whole entry): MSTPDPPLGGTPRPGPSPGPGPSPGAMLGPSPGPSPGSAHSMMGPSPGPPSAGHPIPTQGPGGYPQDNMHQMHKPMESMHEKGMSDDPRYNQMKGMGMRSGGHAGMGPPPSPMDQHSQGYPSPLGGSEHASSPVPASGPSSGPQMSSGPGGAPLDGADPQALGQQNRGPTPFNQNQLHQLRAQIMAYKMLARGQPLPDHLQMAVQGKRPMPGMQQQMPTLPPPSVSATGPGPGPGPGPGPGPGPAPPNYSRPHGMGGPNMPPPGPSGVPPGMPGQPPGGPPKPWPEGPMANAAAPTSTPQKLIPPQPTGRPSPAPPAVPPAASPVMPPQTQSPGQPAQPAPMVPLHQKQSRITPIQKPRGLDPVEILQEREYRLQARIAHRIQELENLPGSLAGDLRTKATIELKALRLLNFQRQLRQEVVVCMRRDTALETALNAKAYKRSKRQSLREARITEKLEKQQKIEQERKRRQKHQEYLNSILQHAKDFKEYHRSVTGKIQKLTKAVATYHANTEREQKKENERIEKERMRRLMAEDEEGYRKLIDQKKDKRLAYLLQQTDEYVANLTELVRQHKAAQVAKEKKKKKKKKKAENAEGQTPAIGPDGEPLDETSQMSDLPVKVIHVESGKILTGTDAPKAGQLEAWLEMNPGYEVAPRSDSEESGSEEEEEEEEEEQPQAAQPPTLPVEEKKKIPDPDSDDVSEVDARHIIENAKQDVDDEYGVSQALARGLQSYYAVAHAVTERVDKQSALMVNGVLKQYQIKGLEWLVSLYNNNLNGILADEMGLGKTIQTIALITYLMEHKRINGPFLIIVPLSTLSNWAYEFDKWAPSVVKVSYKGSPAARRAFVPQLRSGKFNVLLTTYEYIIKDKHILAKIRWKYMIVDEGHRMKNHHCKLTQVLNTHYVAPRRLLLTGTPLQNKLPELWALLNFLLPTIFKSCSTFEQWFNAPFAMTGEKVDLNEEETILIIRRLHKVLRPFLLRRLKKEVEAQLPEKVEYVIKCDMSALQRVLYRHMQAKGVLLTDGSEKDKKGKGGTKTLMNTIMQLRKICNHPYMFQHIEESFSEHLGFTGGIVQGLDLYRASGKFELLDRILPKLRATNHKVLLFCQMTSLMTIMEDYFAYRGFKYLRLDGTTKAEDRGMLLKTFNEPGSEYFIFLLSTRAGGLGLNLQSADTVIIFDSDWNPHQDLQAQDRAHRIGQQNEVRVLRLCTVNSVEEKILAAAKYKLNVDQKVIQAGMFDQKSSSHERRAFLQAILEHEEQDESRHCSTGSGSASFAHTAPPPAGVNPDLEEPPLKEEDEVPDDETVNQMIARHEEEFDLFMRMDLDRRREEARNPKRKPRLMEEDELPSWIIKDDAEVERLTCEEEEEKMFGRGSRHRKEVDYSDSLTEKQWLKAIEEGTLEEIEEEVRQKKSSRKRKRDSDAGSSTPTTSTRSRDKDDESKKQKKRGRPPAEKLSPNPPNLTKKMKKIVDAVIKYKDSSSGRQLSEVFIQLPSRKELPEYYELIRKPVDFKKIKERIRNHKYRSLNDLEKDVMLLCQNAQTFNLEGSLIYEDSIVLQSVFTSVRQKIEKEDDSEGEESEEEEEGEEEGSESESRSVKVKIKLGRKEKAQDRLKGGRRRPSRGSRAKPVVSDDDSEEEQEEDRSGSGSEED

Structure (SMILES) | IC50 (BRG-1) [nM] | Emax (BRG-1) [%] | BRM Max % Inhibition (BRM) [%] | IC50 (BRM) [µM]
C[C@@]1(C#N)COCc2ccc(C(=O)NCc3cc4nc(-c5ccccc5C(F)F)ccc4cn3)cc21 [Compound 521] | > 1000 | 34 | 85 | 0.1 to 0.5
C[C@@]1(C#N)COCc2ccc(C(=O)NCc3cc4nc(-c5ccncc5)sc4cn3)cc21 [Compound 438] | > 1000 | 28 | 84 | 0.1 to 0.5
C[C@@]1(CO)COCc2ccc(C(=O)NCc3cc4nc(-c5ccccc5)ccc4cn3)cc21 [Compound 109] | > 1000 | 11 | 75 | > 1
C[C@@]1(C#N)COCc2ccc(C(=O)NCc3nccc(/C=C/c4ccccc4)c3F)cc21 [Compound 33] | > 1000 | 78 | 98 | 0.1 to 0.5
C[C@@]1(C#N)COCc2ccc(C(=O)NCc3ncc4ccc(-c5ccccc5)nc4c3F)cc21 [Compound 167] | 500 to 1000 | 69 | 93 | 0.1 to 0.5
C[C@@]1(C#N)COCc2ccc(C(=O)NCc3cc4nc(-c5cnn(-c6ccncc6)c5)ccc4cn3)cc21 [Compound 477] | > 1000 | 49 | 88 | 0.1 to 0.5
COc1nn(C(F)F)cc1-c1ccc2cnc(CNC(=O)c3ccc4c(c3)[C@](C)(C#N)COC4)cc2n1 [Compound 193] | 500 to 1000 | 86 | 99 | < 0.1
O=C(NCc1cc(C#Cc2ccccc2)ccn1)c1ccc2c(c1)[C@@](F)(C(F)F)COC2 [Compound 47] | > 1000 | 47 | 90 | 0.1 to 0.5
C[C@@]1(C#N)COCc2ccc(C(=O)NCc3cc(N4CCc5ccc(C(F)F)cc5C4)ccn3)cc21 [Compound 63] | 500 to 1000 | 84 | 99 | < 0.1
C[C@@]1(C#N)COCc2ccc(C(=O)NCc3cc4nc(-c5ccccc5)sc4nn3)cc21 [Compound 242] | 500 to 1000 | 51 | 94 | 0.1 to 0.5
COCCn1cc(-c2ccc3cnc(CNC(=O)c4ccc5c(c4)[C@](C)(C#N)COC5)cc3n2)c(OC)n1 [Compound 203] | > 1000 | 26 | 84 | 0.1 to 0.5
C[C@@]1(C#N)COCc2ccc(C(=O)NCc3cc(N4CCC[C@H](c5ccccc5)C4)ccn3)cc21 [Compound 55] | > 1000 | 33 | 82 | 0.1 to 0.5
C[C@@]1(C#N)COCc2ccc(C(=O)NCc3cc4nc(-c5cc6ccccn6n5)ccc4cn3)cc21 [Compound 164] | 500 to 1000 | 68 | 92 | 0.1 to 0.5
CN(C)c1nccc(N2CCc3cnc(CNC(=O)c4ccc5c(c4)[C@](C)(C#N)COC5)cc3C2)n1 [Compound 326] | 500 to 1000 | 70 | 97 | 0.1 to 0.5
COc1nn(C2CCC2)cc1-c1ccc2cnc(CNC(=O)c3ccc4c(c3)[C@](C)(C#N)COC4)cc2n1 [Compound 200] | 500 to 1000 | 71 | 97 | 0.1 to 0.5
C[C@@]1(C#N)COCc2ccc(C(=O)NCc3cc4nc(-c5cccnc5)sc4cn3)cc21 [Compound 439] | > 1000 | 36 | 88 | 0.1 to 0.5
Cn1ncc2c1CCN(c1ccc3cnc(CNC(=O)c4ccc5c(c4)[C@](C)(C#N)COC5)cc3n1)C2 [Compound 453] | 500 to 1000 | 61 | 91 | 0.1 to 0.5
COc1nn(C)cc1-c1cnc2cnc(CNC(=O)c3ccc4c(c3)[C@](C)(C#N)COC4)cc2c1 [Compound 261] | 500 to 1000 | 61 | 94 | 0.1 to 0.5
[2H]C1([2H])OCc2ncc(C(=O)NCc3cc4nc(-c5cncc(C6CC6)n5)ccc4cn3)cc2[C@]1(C)F [Compound 222] | 500 to 1000 | 83 | 98 | < 0.1
Cn1cc2c(n1)CN(c1ccc3cnc(CNC(=O)c4ccc5c(c4)[C@](C)(C#N)COC5)cc3n1)CC2 [Compound 458] | 500 to 1000 | 74 | 95 | 0.1 to 0.5
C[C@@]1(C#N)COCc2ccc(C(=O)NCc3cc(N4CCC(F)(c5ccccc5)C4)ccn3)cc21 (stereo partly shown) [Compound 60] | 500 to 1000 | 75 | 93 | 0.1 to 0.5
C[C@@H](NC(=O)c1ccc2c(c1)[C@](C)(C#N)COC2)c1cc2nc(-c3ccccc3)ccc2cn1 [Compound 88] | > 1000 | 73 | 96 | 0.1 to 0.5
Cn1cc(-c2ccc3cnc(CNC(=O)c4ccc5c(c4)[C@](C)(F)COC5)cc3n2)c(C#N)n1 [Compound 305] | > 1000 | 40 | 87 | 0.1 to 0.5
COc1cc(-c2ccc3cnc(CNC(=O)c4ccc5c(c4)[C@](C)(C#N)COC5)cc3n2)nc(N2CCC2)n1 [Compound 442] | 500 to 1000 | 75 | 96 | < 0.1

Further lines, results first:

IC50 (BRG-1) [nM] | Emax (BRG-1) [%] | BRM Max % Inhibition (BRM) [%] | IC50 (BRM) [µM] | Structure (SMILES)
500 to 1000 | 68 | 90 | 0.1 to 0.5 | COc1c(F)cc(F)cc1-c1ccc2cnc(CNC(=O)c3ccc4c(c3)[C@](C)(C#N)COC4)cc2n1 [Compound 515]
100 to 500 | 93 | 101 | < 0.1 | COCC1CN(c2cncc(-c3ccc4cnc(CNC(=O)c5ccc6c(c5)[C@](C)(C#N)COC6)cc4n3)n2)C1 [Compound 394]
100 to 500 | 90 | 100 | < 0.1 | O=C(NCc1cc2nc(-c3cncc(C4CC4)n3)ccc2cn1)c1cnc2c(c1)[C@@](F)(C(F)F)COC2 [Compound 229]
< 100 | 98 | 100 | < 0.1 | Cc1cc2c(-c3ccc4cnc(CNC(=O)c5ccc6c(c5)[C@](C)(C#N)COC6)cc4n3)ccc(F)c2n1C [Compound 129]
100 to 500 | 90 | 99 | < 0.1 | C[C@@]1(C#N)COCc2ccc(C(=O)NCc3cc4cc(-c5ccccc5)ccc4nn3)cc21 [Compound 494]
500 to 1000 | 71 | 93 | 0.1 to 0.5 | COc1c(-c2ccc3cnc(CNC(=O)c4ccc5c(c4)[C@](C)(C#N)COC5)cc3n2)cnn1C [Compound 462]
500 to 1000 | 53 | 88 | 0.1 to 0.5 | C[C@@]1(C#N)COCc2ccc(C(=O)NCc3cc4nc(-c5cnccn5)ccc4cn3)cc21 [Compound 520]
100 to 500 | 87 | 98 | < 0.1 | COC(C)(C)C#Cc1cccc(-c2ccc3cnc(CNC(=O)c4ccc5c(c4)[C@](C)(C#N)COC5)cc3n2)n1 [Compound 163]
500 to 1000 | 65 | 91 | 0.1 to 0.5 | Cc1cncc(-c2ccc3cnc(CNC(=O)c4ccc5c(c4)[C@](C)(C#N)COC5)cc3n2)n1 [Compound 408]
100 to 500 | 87 | 98 | < 0.1 | COc1cccc([C@H]2C[C@H](c3ccnc(CNC(=O)c4ccc5c(c4)[C@](C)(C#N)COC5)c3)C2)c1 [Compound 74]
500 to 1000 | 58 | 93 | 0.1 to 0.5 | C[C@@]1(F)COCc2ccc(C(=O)NCc3cc4nc(-c5cccc(C6(O)CCOCC6)n5)ccc4cn3)cc21 [Compound 302]
100 to 500 | 85 | 98 | 0.1 to 0.5 | CN(C)c1cccc(-c2ccc3cnc(CNC(=O)c4cc(F)c5c(c4)[C@](F)(C(F)F)COC5)cc3n2)n1 [Compound 226]
100 to 500 | 91 | 97 | < 0.1 | C[C@@]1(F)COCc2ccc(C(=O)NCc3cc4nc(-c5cncc(N6CCC6)n5)ccc4cn3)cc21 [Compound 401]
100 to 500 | 96 | 99 | < 0.1 | COc1cc(C(F)F)ccc1-c1ccc2cnc(CNC(=O)c3ccc4c(c3)[C@](C)(C#N)COC4)cc2n1 [Compound 157]
100 to 500 | 98 | 100 | < 0.1 | C[C@@]1(C#N)COCc2c(F)cc(C(=O)NCc3cc4nc(-c5cncc(N6CCC6)n5)ccc4cn3)cc21 [Compound 399]
100 to 500 | 91 | 99 | < 0.1 | C[C@@]1(C#N)COCc2ccc(C(=O)NCc3cc4nc(-c5ccnc(N6CC7(COC7)C6)n5)ccc4cn3)cc21 [Compound 403]
100 to 500 | 90 | 101 | < 0.1 | C[C@@]1(F)COCc2ccc(C(=O)NCc3cc4nc(-c5cncc(C6CC6)n5)ccc4cn3)cc21 [Compound 325]
100 to 500 | 93 | 100 | < 0.1 | C[C@@]1(C#N)COCc2ccc(C(=O)NCc3cc4nc(-c5ccnc(N6CC[C@H](F)C6)n5)ccc4cn3)cc21 [Compound 341]
100 to 500 | 95 | 101 | < 0.1 | C[C@@]1(C#N)COCc2ccc(C(=O)NCc3cc4cc(-c5cccc(N6CCC6)n5)ccc4nn3)cc21 [Compound 351]
